Measurements taken from EP0224257A1, “Stabilized benzimidazole derivatives” (SYNTEX (U.S.A.) INC., priority 1985, dated 1987).

Experiment: Blood plasma levels after oral administration to dogs
Type: in vivo
Settings: 10 mg/kg, compared with oxfendazole in commercially available form
Procedure: Dogs were administered orally either amorphous or crystalline oxfendazole at a dose of 10 mg/kg.
Blood samples were drawn and analyzed before administration and on days 1, 2, 3, 7, 10 and 13 following administration. The area under the curve was calculated for plasma concentration vs time profile.

SMILES: COC(=O)Nc1nc2ccc([S+]([O-])c3ccccc3)cc2[nH]1 (stereo not shown) [amorphous oxfendazole, methyl 5-(phenylsulfinyl)-1H-benzimidazol-2-yl carbamate]
- plasma level of oxfendazole: higher plasma level
